# Assay results published in patent US20170252392A1, “COMPOSITION FOR IMPROVEMENT, TREATMENT OR PREVENTION OF CONSTIPATION COMPRISING CASSIA SEED LACTIC ACID BACTERIA FERMENTED PRODUCT AS EFFECTIVE INGREDIENT, AND METHOD FOR PREPARING SAME” (HAENAM NATURAL FARMING ASSOCIATION COOPERATION, priority 2014, published 2017).
# Legend:
# [1] = test system: Sprague-Dawley (SD) rats with loperamide-induced constipation; assay: Colonic transits of carmine dye (Experimental Example 3); assay type: in vivo, rat; conditions: 20 min after oral carmine dye
# Description: At day 6, 3 mL of carmine dye at a concentration of 1.5% (w/v) in physiological saline was administered orally to the experimental animals. 20 min after the oral administration, the experimental animals were sacrificed. Thereafter, in each experimental animal, both ends of the site of the colon from the appendix to the rectum were ligated. The colon site was excised and washed with PBS. The colonic transits of the carmine dye were measured from FIG. 6.
# [2] = test system: Sprague-Dawley (SD) rats with loperamide-induced constipation; assay: Prevention of loperamide-induced constipation: number and weight of feces (Experimental Example 2); assay type: in vivo, rat
# Description: Four-week-old male Sprague-Dawley (SD) rats were purchased from Damul Science (Daejeon, Korea) and bred at a temperature of 20±2° C. and a humidity of 55±5% on a 12 h light-dark cycle. The experimental animals were acclimated for 1 week after purchase and were divided into the experimental groups (5 animals per group) shown in Table 3.
# All experimental groups other than the normal control (NOR) and the negative control (LOP) were administered orally the respective drugs (positive controls) or the respective fermented products of Preparative Example 4 for 5 days before loperamide administration.
# The negative control (LOP), the positive controls (CON1, CON2), and all experimental groups other than the normal control (NOR) were administered subcutaneously loperamide for 5 days to induce constipation. The experimental animals were sacrificed on day 6 after initiation of the loperamide administration.
Compound,"Colonic transit of the carmine dye ([1]; negative control (LOP): loperamide 4 mg/kg s.c. 5 days, normal control 13.4±0.94 cm)","Weight of feces ([2]; negative control (LOP): loperamide 4 mg/kg subcutaneously for 5 days, normal control 4.8±0.89)","Number of feces ([2]; negative control (LOP): loperamide 4 mg/kg subcutaneously for 5 days, normal control 47.2±5.8)",Colonic transit of the carmine dye ([1]; sennoside 50 mg/kg oral before loperamide (CON1)),Number of feces ([2]; sennoside 50 mg/kg oral before loperamide 4 mg/kg s.c. 5 days (CON1)),"Weight of feces ([2]; sennoside 50 mg/kg oral before loperamide (CON1), compared with CON2)"
CN(C)C(=O)C(CCN1CCC(O)(c2ccc(Cl)cc2)CC1)(c1ccccc1)c1ccccc1 [loperamide],6.6±0.75 cm,2.6±0.32,23.1±3.6,–,–,–
sennoside,–,–,–,significantly increased compared to that in the negative control (LOP),more effective in increasing the number of feces than Dulcolax-S,no significant difference in the weight of feces
